These results are taken from patent US11331369B2, “Endoparasitic depsipeptides” (Zoetis Services LLC, priority 2017, dated 2022).

Type in all cases: cell-based
The subject of test [1] is third stage larvae of Haemonchus contortus. The test can be described thus: Haemonchus contortus L3 (HcL3) Assay. Particulars: 96 h, read-out: HcL3 Minimum Effective Dose (MED).
In test [2] the test system is 4th stage larvae (L4) of Dirofilaria immitis. The test can be described thus: Dirofilaria immitis, L4 Stage (DiL4) In Vitro Assay. Particulars: Dirofilaria immitis, 72 h, read-out: DiL4 Minimum Effective Dose (MED), approximately 72 hours incubation; L4 larvae assessed for survival or paralysis.
Test [3] deals with microfilariae of Dirofilaria immitis. The test can be described thus: Dirofilaria immitis, Microfilaria (DiMF) In vitro Assay. The note with it: 72 h, read-out: DiMF Minimum Effective Dose (MED), approximately 72 hours incubation, microfilariae assessed for survival or paralysis.

A value given as a limit tells only on which side of the number the result lay.

As for `CC(C)C[C@H]1C(=O)O[C@H](Cc2ccc(Cn3cc(I)cn3)cc2)C(=O)N(C)[C@@H](CC(C)C)C(=O)O[C@H](C)C(=O)N(C)[C@@H](CC(C)C)C(=O)O[C@H](Cc2ccc(Cn3cc(I)cn3)cc2)C(=O)N(C)[C@@H](CC(C)C)C(=O)O[C@H](C)C(=O)N1C` [Example 1b-46, (3S,6R,9S,12R,15S,18R,21S,24R)-6,18-bis(4-((4-iodo-1H-pyrazol-1-yl)methyl)benzyl)-3,9,15,21-tetraisobutyl-4,10,12,16,22,24-hexamethyl-1,7,13,19-tetraoxa-4,10,16,22-tetraazacyclotetracosan-2,5,8,11,14,17,20,23-octaone], the minimal effective concentration fell in the range of 1 to 10 µM in test [1], 0.0001 to 0.001 µM in test [2] and 0.001 to 0.01 µM in test [3].

For the compound `CC(C)C[C@H]1C(=O)O[C@H](Cc2ccc(Cn3nc(C(F)F)cc3C(F)F)cc2)C(=O)N(C)[C@@H](CC(C)C)C(=O)O[C@H](C)C(=O)N(C)[C@@H](CC(C)C)C(=O)O[C@H](Cc2ccc(Cn3nc(C(F)F)cc3C(F)F)cc2)C(=O)N(C)[C@@H](CC(C)C)C(=O)O[C@H](C)C(=O)N1C` [Example 1b-89, (3S,6R,9S,12R,15S,18R,21S,24R)-6,18-bis(4-((3,5-bis(difluoromethyl)-1H-pyrazol-1-yl)methyl)benzyl)-3,9,15,21-tetraisobutyl-4,10,12,16,22,24-hexamethyl-1,7,13,19-tetraoxa-4,10,16,22-tetraazacyclotetracosan-2,5,8,11,14,17,20,23-octaone], the figures for the minimal effective concentration in test [1], in test [2] and in test [3] were ≤ 1 µM, ≤ 0.0001 µM and 0.001 to 0.01 µM, respectively.

On to `CC#Cc1cnn(Cc2ccc(C[C@H]3OC(=O)[C@H](CC(C)C)N(C)C(=O)[C@@H](C)OC(=O)[C@H](CC(C)C)N(C)C(=O)[C@@H](Cc4ccc(Cn5cc(C#CC)cn5)cc4)OC(=O)[C@H](CC(C)C)N(C)C(=O)[C@@H](C)OC(=O)[C@H](CC(C)C)N(C)C3=O)cc2)c1` [Example 1b-118, (3S,6R,9S,12R,15S,18R,21S,24R)-3,9,15,21-tetraisobutyl-4,6,10,16,18,22-hexamethyl-12,24-bis(4-((4-(prop-1-yn-1-yl)-1H-pyrazol-1-yl)methyl)benzyl)-1,7,13,19-tetraoxa-4,10,16,22-tetraazacyclotetracosan-2,5,8,11,14,17,20,23-octaone], for which the minimal effective concentration in test [1] was 1 to 10 µM; in test [2], 0.0001 to 0.001 µM; in test [3] it was 0.001 to 0.01 µM.

Consider `CCC#Cc1cnn(Cc2ccc(C[C@H]3OC(=O)[C@H](CC(C)C)N(C)C(=O)[C@@H](C)OC(=O)[C@H](CC(C)C)N(C)C(=O)[C@@H](Cc4ccc(Cn5cc(C#CCC)cn5)cc4)OC(=O)[C@H](CC(C)C)N(C)C(=O)[C@@H](C)OC(=O)[C@H](CC(C)C)N(C)C3=O)cc2)c1` [Example 1b-119, (3S,6R,9S,12R,15S,18R,21S,24R)-6,18-bis(4-((4-(but-1-yn-1-yl)-1H-pyrazol-1-yl)methyl)benzyl)-3,9,15,21-tetraisobutyl-4,10,12,16,22,24-hexamethyl-1,7,13,19-tetraoxa-4,10,16,22-tetraazacyclotetracosan-2,5,8,11,14,17,20,23-octaone], for which the results for the minimal effective concentration in test [1], in test [2] and in test [3] were 10 to 100 µM, ≤ 0.0001 µM and 0.001 to 0.01 µM, respectively.

Take `CC(C)C[C@H]1C(=O)O[C@H](Cc2ccc(Cn3nccc3C(C)C)cc2)C(=O)N(C)[C@@H](CC(C)C)C(=O)O[C@H](C)C(=O)N(C)[C@@H](CC(C)C)C(=O)O[C@H](Cc2ccc(Cn3nccc3C(C)C)cc2)C(=O)N(C)[C@@H](CC(C)C)C(=O)O[C@H](C)C(=O)N1C` [Example 1b-126, (3S,6R,9S,12R,15S,18R,21S,24R)-3,9,15,21-tetraisobutyl-6,18-bis(4-((5-isopropyl-1H-pyrazol-1-yl)methyl)benzyl)-4,10,12,16,22,24-hexamethyl-1,7,13,19-tetraoxa-4,10,16,22-tetraazacyclotetracosan-2,5,8,11,14,17,20,23-octaone]: the minimal effective concentration in test [1] was in the range of 1 to 10 µM; in test [2] it was 0.0001 to 0.001 µM; in test [3], 0.001 to 0.01 µM.

Take `CC(C)C[C@H]1C(=O)O[C@H](Cc2ccc(Cn3nccc3C(C)(C)C)cc2)C(=O)N(C)[C@@H](CC(C)C)C(=O)O[C@H](C)C(=O)N(C)[C@@H](CC(C)C)C(=O)O[C@H](Cc2ccc(Cn3nccc3C(C)(C)C)cc2)C(=O)N(C)[C@@H](CC(C)C)C(=O)O[C@H](C)C(=O)N1C` [Example 1b-127, (3S,6R,9S,12R,15S,18R,21S,24R)-6,18-bis(4-((5-(tert-butyl)-1H-pyrazol-1-yl)methyl)benzyl)-3,9,15,21-tetraisobutyl-4,10,12,16,22,24-hexamethyl-1,7,13,19-tetraoxa-4,10,16,22-tetraazacyclotetracosan-2,5,8,11,14,17,20,23-octaone]: the minimal effective concentration in test [1] was 1 to 10 µM; in test [2], 0.001 to 0.01 µM; in test [3], 0.01 to 0.1 µM.

In the case of `CC(C)C[C@H]1C(=O)O[C@H](Cc2ccc(Cn3nccc3C3CCC3)cc2)C(=O)N(C)[C@@H](CC(C)C)C(=O)O[C@H](C)C(=O)N(C)[C@@H](CC(C)C)C(=O)O[C@H](Cc2ccc(Cn3nccc3C3CCC3)cc2)C(=O)N(C)[C@@H](CC(C)C)C(=O)O[C@H](C)C(=O)N1C` [Example 1b-129, (3S,6R,9S,12R,15S,18R,21S,24R)-6,18-bis(4-((5-cyclobutyl-1H-pyrazol-1-yl)methyl)benzyl)-3,9,15,21-tetraisobutyl-4,10,12,16,22,24-hexamethyl-1,7,13,19-tetraoxa-4,10,16,22-tetraazacyclotetracosan-2,5,8,11,14,17,20,23-octaone], the minimal effective concentration in test [1] lay within 1 to 10 µM; in test [2] it was 0.0001 to 0.001 µM; in test [3] it was 0.01 to 0.1 µM.

As to `CC(C)C[C@H]1C(=O)O[C@H](Cc2ccc(Cn3ccc(N)n3)cc2)C(=O)N(C)[C@@H](CC(C)C)C(=O)O[C@H](C)C(=O)N(C)[C@@H](CC(C)C)C(=O)O[C@H](Cc2ccc(Cn3ccc(N)n3)cc2)C(=O)N(C)[C@@H](CC(C)C)C(=O)O[C@H](C)C(=O)N1C` [Example 1b-143, (3S,6R,9S,12R,15S,18R,21S,24R)-6,18-bis(4-((3-amino-1H-pyrazol-1-yl)methyl)benzyl)-3,9,15,21-tetraisobutyl-4,10,12,16,22,24-hexamethyl-1,7,13,19-tetraoxa-4,10,16,22-tetraazacyclotetracosan-2,5,8,11,14,17,20,23-octaone], the minimal effective concentration in test [1] was in the range of 1 to 10 µM; in test [2] it was 0.001 to 0.01 µM; in test [3], 0.001 to 0.01 µM.

Consider `CC(C)C[C@H]1C(=O)O[C@H](Cc2ccc(Cn3ccc(OC(C)C)n3)cc2)C(=O)N(C)[C@@H](CC(C)C)C(=O)O[C@H](C)C(=O)N(C)[C@@H](CC(C)C)C(=O)O[C@H](Cc2ccc(Cn3ccc(OC(C)C)n3)cc2)C(=O)N(C)[C@@H](CC(C)C)C(=O)O[C@H](C)C(=O)N1C` [Example 1b-151, (3S,6R,9S,12R,15S,18R,21S,24R)-3,9,15,21-tetraisobutyl-6,18-bis(4-((3-isopropoxy-1H-pyrazol-1-yl)methyl)benzyl)-4,10,12,16,22,24-hexamethyl-1,7,13,19-tetraoxa-4,10,16,22-tetraazacyclotetracosan-2,5,8,11,14,17,20,23-octaone], for which the minimal effective concentration in test [1] is ≤ 1 µM; in test [2], 0.0001 to 0.001 µM; in test [3], 0.001 to 0.01 µM.

Regarding `CCc1ccnn1Cc1ccc(C[C@H]2OC(=O)[C@H](CC(C)C)N(C)C(=O)[C@@H](C)OC(=O)[C@H](CC(C)C)N(C)C(=O)[C@@H](Cc3ccc(Cn4nccc4CC)cc3)OC(=O)[C@H](CC(C)C)N(C)C(=O)[C@@H](C)OC(=O)[C@H](CC(C)C)N(C)C2=O)cc1` [Example 1b-165, (3S,6R,9S,12R,15S,18R,21S,24R)-6,18-bis(4-((5-ethyl-1H-pyrazol-1-yl)methyl)benzyl)-3,9,15,21-tetraisobutyl-4,10,12,16,22,24-hexamethyl-1,7,13,19-tetraoxa-4,10,16,22-tetraazacyclotetracosan-2,5,8,11,14,17,20,23-octaone], the minimal effective concentration in test [1] is ≤ 1 µM; in test [2], 0.0001 to 0.001 µM; in test [3], 0.001 to 0.01 µM.

As to `CCc1cc(C)n(Cc2ccc(C[C@H]3OC(=O)[C@H](CC(C)C)N(C)C(=O)[C@@H](C)OC(=O)[C@H](CC(C)C)N(C)C(=O)[C@@H](Cc4ccc(Cn5nc(C)cc5CC)cc4)OC(=O)[C@H](CC(C)C)N(C)C(=O)[C@@H](C)OC(=O)[C@H](CC(C)C)N(C)C3=O)cc2)n1` [Example 1b-186, (3S,6R,9S,12R,15S,18R,21S,24R)-6-(4-((5-ethyl-3-methyl-1H-pyrazol-1-yl)methyl)benzyl)-18-(4-((3-ethyl-5-methyl-1H-pyrazol-1-yl)methyl)benzyl)-3,9,15,21-tetraisobutyl-4,10,12,16,22,24-hexamethyl-1,7,13,19-tetraoxa-4,10,16,22-tetraazacyclotetracosan-2,5,8,11,14,17,20,23-octaone], the minimal effective concentration in test [1] was 1 to 10 µM; in test [2], 0.0001 to 0.001 µM; in test [3], 0.01 to 0.1 µM.

Regarding `CCc1cc(C)nn1Cc1ccc(C[C@H]2OC(=O)[C@H](CC(C)C)N(C)C(=O)[C@@H](C)OC(=O)[C@H](CC(C)C)N(C)C(=O)[C@@H](Cc3ccc(Cn4nc(C)cc4CC)cc3)OC(=O)[C@H](CC(C)C)N(C)C(=O)[C@@H](C)OC(=O)[C@H](CC(C)C)N(C)C2=O)cc1` [Example 1b-187, (3S,6R,9S,12R,15S,18R,21S,24R)-6,18-bis(4-((5-ethyl-3-methyl-1H-pyrazol-1-yl)methyl)benzyl)-3,9,15,21-tetraisobutyl-4,10,12,16,22,24-hexamethyl-1,7,13,19-tetraoxa-4,10,16,22-tetraazacyclotetracosan-2,5,8,11,14,17,20,23-octaone], the minimal effective concentration in test [1] was in the range of 1 to 10 µM; in test [2], 0.001 to 0.01 µM; in test [3], 0.01 to 0.1 µM.
